Test results from ChEMBL document CHEMBL6087399, “Extended structure-activity relationship studies of the [1,2,5]oxadiazolo[3,4-b]pyrazine-containing colistin adjuvants” (Bioorg Med Chem Lett, 2025).
≈ marks a conversion by molar mass, not a printed value.

Assays:
[1] = system: Escherichia coli; assay: Potentiation of colistin-induced antibacterial activity against Escherichia coli AR-0493 assessed as minimum re-sensitizing concentration; format: functional; conditions: read-out: MEC
[2] = Selectivity index, ratio of GI50 for cytotoxicity against human HepG2 cells to MEC for potentiation of colistin-induced antibacterial activity against Escherichia coli AR-0493 assessed as minimum re-sensitizing concentration; format: toxicity, cell-based; conditions: read-out: Selectivity Index
[3] = system: Escherichia coli; assay: Antibacterial activity against Escherichia coli AR-0493 by CLSI based susceptibility testing method; format: functional
[4] = Cytotoxicity against human HepG2 cells by Cell Titer Glo assay; format: toxicity, cell-based
[5] = system: Klebsiella pneumoniae; assay: Potentiation of colistin-induced antibacterial activity against Klebsiella pneumoniae AR-0497 harboring mcr-1 gene assessed as colistin MIC at 1 ug/ml; format: functional; conditions: dose 1 µg/ml
[6] = system: Salmonella typhimurium; assay: Potentiation of colistin-induced antibacterial activity against Salmonella typhimurium AR-0539 harboring mcr-3 gene assessed as colistin MIC at 1 ug/ml; format: functional, Salmonella enterica subsp. enterica serovar Typhimurium; conditions: Salmonella enterica, dose 1 µg/ml
[7] = system: Acinetobacter baumannii; assay: Potentiation of colistin-induced antibacterial activity against Acinetobacter baumannii AR-0310 assessed as colistin MIC at 1 ug/ml; format: functional; conditions: dose 1 µg/ml
[8] = system: Escherichia coli; assay: Potentiation of colistin-induced antibacterial activity against Escherichia coli AR-0538 harboring mcr-2 gene assessed as colistin MIC at 1 ug/ml; format: functional; conditions: dose 1 µg/ml
[9] = system: Pseudomonas aeruginosa; assay: Potentiation of colistin-induced antibacterial activity against Pseudomonas aeruginosa AR-0239 assessed as colistin MIC at 1 ug/ml; format: functional; conditions: dose 1 µg/ml
[10] = system: Escherichia coli; assay: Potentiation of colistin-induced antibacterial activity against Escherichia coli AR-0493 harboring mcr-1 gene assessed as colistin MIC at 1 ug/ml; format: functional; conditions: dose 1 µg/ml
[11] = system: Salmonella typhimurium; assay: Potentiation of colistin-induced antibacterial activity against Salmonella typhimurium AR-0635 harboring mcr-4 gene assessed as colistin MIC at 1 ug/ml; format: functional, Salmonella enterica subsp. enterica serovar Typhimurium; conditions: Salmonella enterica, dose 1 µg/ml
[12] = system: Escherichia coli; assay: Synergistic antibacterial activity against Escherichia coli AR-0493 assessed as fractional inhibitory concentration index in presence of colistin by Checkerboard broth microdilution assay; format: functional

## CC(C)(C)Nc1nc2nonc2nc1NC(C)(C)C
[1]
  minimal effective concentration: 8 µg/mL

## C1CCC(Nc2nc3nonc3nc2NC2CCCCC2)CC1
[1]
  minimal effective concentration: 4 µg/mL

## CCCNc1nc2nonc2nc1NCCC
[1]
  minimal effective concentration: > 16 µg/mL

## CCCCNc1nc2nonc2nc1NCCCC
[1]
  minimal effective concentration: 8 µg/mL

## CCCCCCNc1nc2nonc2nc1NCCCCCC
[1]
  minimal effective concentration: 0.5 µg/mL
[2]
  selectivity ratio: 1.2
[3]
  MIC: > 64 µg/mL
[4]
  GI50: 0.59 µg/mL (≈ 1.84 µM)

## C1CCC(Nc2nc3nonc3nc2NC2CCCC2)C1
[1]
  minimal effective concentration: 8 µg/mL

## Clc1cccc(Nc2nc3nonc3nc2Nc2cccc(Cl)c2)c1
[5]
  MIC: 1 µg/mL
[6]
  MIC: 1 µg/mL
[7]
  MIC: 0.25 µg/mL
[8]
  MIC: 1 µg/mL
[9]
  MIC: 1 µg/mL
[10]
  MIC: 1 µg/mL
[11]
  MIC: 1 µg/mL

## FC1(F)CC(CNc2nc3nonc3nc2Nc2cccc(Cl)c2)C1
[1]
  minimal effective concentration: 1 µg/mL

## CC(C)CCNc1nc2nonc2nc1NCCC(C)C
[1]
  minimal effective concentration: 2 µg/mL

## Clc1ccc(CNc2nc3nonc3nc2NCc2ccc(Cl)cc2)cc1
[5]
  MIC: 2 µg/mL
[6]
  MIC: 1 µg/mL
[7]
  MIC: 0.5 µg/mL
[1]
  minimal effective concentration: 0.125 µg/mL
[12]
  fractional inhibitory concentration index (FICI): 0.07
[8]
  MIC: 1 µg/mL
[9]
  MIC: 1 µg/mL
[2]
  selectivity ratio: 36
[10]
  MIC: 0.5 µg/mL
[3]
  MIC: > 64 µg/mL
[4]
  GI50: 4.5 µg/mL (≈ 11.2 µM)
[11]
  MIC: 2 µg/mL

## Clc1cccc(Nc2nc3nonc3nc2NCCc2c[nH]c3ccc(Cl)cc23)c1
[1]
  minimal effective concentration: 1 µg/mL

## CCCCCCCCCCNc1nc2nonc2nc1Nc1cccc(Cl)c1
[1]
  minimal effective concentration: 2 µg/mL

## CC(C)CNc1nc2nonc2nc1Nc1cccc(Cl)c1
[1]
  minimal effective concentration: 2 µg/mL

## CCCNc1nc2nonc2nc1Nc1cccc(Cl)c1
[1]
  minimal effective concentration: 1 µg/mL

## CCCCCCCCCCCCNc1nc2nonc2nc1Nc1cccc(Cl)c1
[1]
  minimal effective concentration: > 16 µg/mL

## CCCCCCCCNc1nc2nonc2nc1Nc1cccc(Cl)c1
[1]
  minimal effective concentration: 1 µg/mL

## CNc1nc2nonc2nc1Nc1cccc(Cl)c1
[1]
  minimal effective concentration: 8 µg/mL

## Clc1ccc2[nH]cc(CCNc3nc4nonc4nc3NCCc3c[nH]c4ccc(Cl)cc34)c2c1
[1]
  minimal effective concentration: > 16 µg/mL

## Clc1cccc(Nc2nc3nonc3nc2NCC2CC2)c1
[1]
  minimal effective concentration: 1 µg/mL

## c1ccc(CCNc2nc3nonc3nc2NCCc2ccccc2)cc1
[1]
  minimal effective concentration: 2 µg/mL

## Clc1cccc(Nc2nc3nonc3nc2NCCc2ccccc2)c1
[1]
  minimal effective concentration: 0.5 µg/mL
[2]
  selectivity ratio: 1.7
[3]
  MIC: > 64 µg/mL
[4]
  GI50: 0.83 µg/mL (≈ 2.26 µM)

## Clc1cccc(Nc2nc3nonc3nc2NCCNc2ccc3ccccc3n2)c1
[1]
  minimal effective concentration: 16 µg/mL

## FC(F)(F)c1cccc(CNc2nc3nonc3nc2Nc2cccc(Cl)c2)c1
[1]
  minimal effective concentration: 0.25 µg/mL
[2]
  selectivity ratio: 22
[3]
  MIC: > 64 µg/mL
[4]
  GI50: 5.5 µg/mL (≈ 13.1 µM)

## FC(F)CNc1nc2nonc2nc1Nc1cccc(Cl)c1
[1]
  minimal effective concentration: 2 µg/mL

## FC(F)(F)Oc1cccc(CNc2nc3nonc3nc2Nc2cccc(Cl)c2)c1
[1]
  minimal effective concentration: 1 µg/mL

## Clc1cccc(Nc2nc3nonc3nc2NC2CCCCC2)c1
[1]
  minimal effective concentration: 1 µg/mL

## Clc1ccc(CNc2nc3nonc3nc2Nc2cccc(Cl)c2)cc1
[1]
  minimal effective concentration: 0.25 µg/mL
[2]
  selectivity ratio: 19
[3]
  MIC: > 64 µg/mL
[4]
  GI50: 4.9 µg/mL (≈ 12.7 µM)
